What was measured:
[1] = tested on: proven poor responders to ovarian stimulation with gonadotropins; conditions: 80 mg micronized DHEA for two months; five poor responders, six IVF cycles; cited from earlier work
[2] = tested on: patients with prior clomiphene citrate failures; test: Toronto insemination cycles after DHEA (reported study); assay type: in vivo, human; conditions: DHEA pregnancies, insemination cycles with clomiphene citrate/letrozole and FSH
Method: In cooperation with Robert F Casper's group at Toronto's Mount Sinai Hospital, they recently reported on 47 patients with prior clomiphene citrate failures who were supplemented with 75 mg daily of DHEA for at least 60 days prior to inseminations, with stimulation by either clomiphene citrate or letrozole in combination with FSH. Controls were 46 women, matched by age and baseline FSH without DHEA supplementation.
The possibility of synergistic gonadotropin and DHEA effects is supported by reanalysis of the Toronto groups' previously noted insemination cycles, stimulated with a clomiphene citrate/letrozole and FSH protocols. […] Final conclusions await, however, further investigations.

[3] = tested on: women with diminished ovarian reserve; test: AMH as reflection of ovarian reserve after DHEA supplementation (Examples 9 and 12); assay type: in vivo, human
Method: The study is a cross-sectional analysis of 120 consecutive women with DOR in whom AMH levels were evaluated as a reflection of OR. They presented during 2007/8 to our center for initial infertility consultation. First AMH levels obtained were used for INITIAL analysis. Post DHEA initiation, exposure to the supplement ranged from 34 to 119 days (mean 73±27 days). Women with two or more consecutive AMH levels comprised patients in the longitudinal study evaluation of OR after initiation of DHEA supplementation. […]
FSH and estradiol were evaluated by standard enzyme-linked immunoabsorbent assay (ELISA; AIA-600II, Tohso, Tokyo, Japan). […] Theoretical sensitivity, or minimum detection limit, as calculated by interpolation of the mean plus two standard deviations (SD) of eight replicates of the 0 ng/ml MIS/AMH Standard, is 0.006 ng/ml. […]
Data are shown as means±standard deviation (SD) or as raw numbers and percentages. […] Demographic and biochemical data were analyzed with paired or unpaired Student's t-test. […]
The study is a cross-sectional and longitudinal analysis of 120 consecutive women with diminished ovarian reserve, in whom AMH concentrations were evaluated as a reflection of ovarian reserve. […]
FSH and oestradiol were evaluated by standard enzyme-linked immunoabsorbent assay (ELISA; AIA-600II, Tohso, Tokyo, Japan). […]

[4] = tested on: women with diminished ovarian reserve; test: Gender of offspring and embryos conceived on DHEA treatment (Example 6); assay type: in vivo, human
Method: The treatment protocol for long-term supplementation with DHEA that may improve oocyte and embryo quantity, quality, pregnancy rates and time to conception in women with diminished ovarian reserve, involves 25 mg of micronized, pharmaceutical grade DHEA, TID will usually uniformly raise levels of unconjugated DHEA above about 350 ng/dl, and, therefore, raise baseline testosterone. Estradiol baseline levels may also be raised.
A total of 19 pregnancies were recorded with 16 singleton and 3 twin pregnancies. The medical records of all 19 women were reviewed in order to determine whether they conceived spontaneously, defined as including pregnancies conceived with intrauterine inseminations, or by IVF. If conception had occurred by IVF, it was recorded whether fertilization was spontaneous or by intracytoplasmic sperm injection (ICSI).
As a control group, seven women were selected who had undergone one IVF cycle with preimplantation genetic diagnosis (PGD), while for at least 60 days on DHEA supplementation, but had not conceived. The PGD data, defining each embryo's gender, were recorded. Statistics were performed using a binomial runs test, comparing seen distributions with an expected distribution of 50 percent, with p≦0.05 defining significance.

[5] = 15 offspring of pregnancies achieved through IVF
[6] = 53 embryos from 17 IVF cycles, women on DHEA, all ICSI
[7] = sixteen singleton pregnancies conceived on DHEA for at least 60 days

For `C[C@]12CC[C@H](O)CC1=CC[C@@H]1[C@@H]2CC[C@]2(C)C(=O)CC[C@@H]12` [DHEA, Dehydroepiandrosterone], the “response to ovarian stimulation compared with prior unsupplemented cycle” value [1] is listed as “improved responsiveness”, the “miscarriage rate (calculated on reanalysis)” value [2] is listed as 28.5% and the clinical pregnancy rate ([3]; 55 women who reached IVF, 13 conceived) is listed as 23.64%. For the same compound, the “AMH at highest measured peak” value ([3]; longitudinal evaluation, n=55, baseline before DHEA 0.22±0.22, DHEA 25 mg TID) was 0.35 ± 0.03 ng/mL, the female offspring [4, 5] was 3 and the male offspring [4, 5] was 12. For the same compound, the “female embryos by PGD” value [4, 6] was 26, the “male embryos by PGD” value [4, 6] was 27 and the “female offspring, final gender distribution” value ([4]; singletons plus twins) was 6. The “male offspring, final gender distribution” value ([4]; singletons plus twins) was 15, the female offspring [4, 7] was 5 and the male offspring [4, 7] was 11.
